Measured values: patent US20210371413A1, “POLYCYCLIC AMIDES AS CYTOTOXIC AGENTS” (FEMTOGENIX LIMITED, priority 2018, published 2021)

Assays:
LIM1215 = assay: In vitro cell-killing, MTT assay, LIM1215; type: cell-based; conditions: LIM1215, 72 h, read-out: In vitro cell-killing (IC50), Cytotoxicity (72 hours)
Protocol: Tumor cell lines were maintained in RPMI1640 medium supplemented with 10% heat-inactivated fetal bovine serum, 2 mM L-glutamine and 1 mM sodium pyruvate. 1800 cells per well were seeded in a volume of 180 μl in a 96-well flat bottom polystyrene plate. The cells were allowed to adhere overnight at 37° C. in a CO2 incubator. Ligands were initially formulated in DMSO, and stocks stored at −80° C. They were then further formulated at lox concentration in RPMI1640 medium. 20 ul of diluted samples were added into each treatment well. On each plate, blank wells with no cells, and untreated wells containing cells, were included. Plates were then cultured at 37° C. in a CO2 incubator for 72 hrs. Cytotoxicity was evaluated using a tetrazolium salt-based assay, the MTT assay. After 72 hours, the supernatant was removed from each well and 200 μl of a sterile filtered 500 μg/ml MTT solution in water added to each well. […] The plate was then read on a plate reader at 540 nm, and percentage cell survival calculated as follows: ((mean absorbance treated wells at concentration x−mean absorbance blank wells)+(mean absorbance untreated wells at concentration x−mean absorbance blank wells))×100. Data were plotted as concentration in nM vs. % cell survival in Microsoft Excel, and IC50 values (concentration where cell survival is reduced by a half) were determined from the graph.

"D" DNA fragment = assay: DNA footprinting, random "D" DNA fragment; type: binding; conditions: random "D" DNA sequence
Protocol: The DNA sequence selectivity profile of the molecules was investigated using a modification of the previously established DNA footprinting assay. Following an overnight incubation of the ligand-DNA complexes, the mixture was mixed with strand separation buffer containing 10 mM EDTA, 10 mM NaOH, 0.1% bromophenol blue, 80% formamide and incubated at 100° C. for 3 min. The mixture was then immediately cooled on ice and run on an 8% denaturing gel.
The preparation of the DS3 DNA fragment (FIG. 5) and the “D” DNA fragment (FIG. 6) has been previously described. Briefly, the sequence which had been cloned into the BamHI site of pUC18 was obtained by cutting with HindIII and EcoRI. Radiolabelled DNA fragments were prepared by filling in the 3′-end of the HindIII site with [α-^32P]dATP using Klenow DNA polymerase (exo-).
The radiolabelled DNA fragment was separated from the remainder of the plasmid DNA on a 6% non-denaturing polyacrylamide gel. […]
Footprinting reactions were performed as previously described using the DNA fragments DS3, which contains tracts of AT/GC bases; and using the “D” DNA fragments which represents a random DNA sequence. […] After gel purification, the radiolabelled DNA was dissolved in 10 mM Tris-HCl pH 7.5 containing 0.1 mM EDTA, at a concentration of about 10 c.p.s per μL as determined on a hand held Geiger counter. […]

## COc1cc2c(cc1OCCCC(=O)Nc1cc(C(=O)Nc3ccc(-c4cc(C(=O)Nc5ccc(N)cc5)n(C)c4)cc3)n(C)c1)NC[C@@H]1CCCCN1C2=O [Compound 16, (S)—N-(4-Aminophenyl)-4-(4-(4-(4-((2-methoxy-12-oxo-5,6,6a,7,8,9,10,12-octahydrobenzo[e]pyrido[1,2-a][1,4]diazepin-3-yl)oxy)butanamido)-1-methyl-1H-pyrrole-2-carboxamido)phenyl)-1-methyl-1H-pyrrole-2-carboxamide]
LIM1215
  IC50: 72 nM
"D" DNA fragment
  preferred binding sites (footprint): only three preferred sites were observed during this experiment, and all are primarily AT-rich
